According to PubChem BioAssay (NCI):
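Cells were grown in 96-well plates and exposed to each compound for 48 hours at five concentrations; endpoints were interpolated linearly between bracketing concentrations, or set to the highest concentration if not reached. TGI: concentration producing complete growth inhibition.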

What was measured:
Assay in all cases: NCI anticancer screen, dose series, 48 h
[1] = system: 786-0 renal
[2] = system: A498 renal
[3] = system: A549 NSCLC
[4] = system: ACHN renal
[5] = system: BT-549 breast
[6] = system: CAKI-1 renal
[7] = system: CCRF-CEM leukemia
[8] = system: COLO 205 colon
[9] = system: DU-145 prostate
[10] = system: EKVX NSCLC
[11] = system: HCC-2998 colon
[12] = system: HCT-116 colon
[13] = system: HCT-15 colon
[14] = system: HL-60(TB) leukemia
[15] = system: HOP-62 NSCLC
[16] = system: HOP-92 NSCLC
[17] = system: HS 578T breast
[18] = system: HT29 colon
[19] = system: IGROV1 ovarian
[20] = system: K-562 leukemia
[21] = system: KM12 colon
[22] = system: LOX IMVI melanoma
[23] = system: M14 melanoma
[24] = system: MCF7 breast
[25] = system: MDA-MB-231 breast
[26] = system: MDA-MB-435
[27] = system: MDA-N
[28] = system: MOLT-4 leukemia
[29] = system: NCI-H226 lung
[30] = system: NCI-H23 lung
[31] = system: NCI-H460 lung
[32] = system: NCI-H522 lung
[33] = system: NCI/ADR-RES ovarian
[34] = system: OVCAR-3 ovarian
[35] = system: OVCAR-4 ovarian
[36] = system: OVCAR-5 ovarian
[37] = system: OVCAR-8 ovarian
[38] = system: PC-3 prostate
[39] = system: RPMI-8226 leukemia
[40] = system: RXF 393 renal
[41] = system: SF-268 CNS
[42] = system: SF-295 CNS
[43] = system: SK-MEL-2 melanoma
[44] = system: SK-MEL-28 melanoma
[45] = system: SK-MEL-5 melanoma
[46] = system: SK-OV-3 ovarian
[47] = system: SN12C renal
[48] = system: SNB-19 CNS
[49] = system: SNB-75 CNS
[50] = system: SR leukemia
[51] = system: SW-620 colon
[52] = system: T-47D breast
[53] = system: TK-10 renal
[54] = system: U251 CNS
[55] = system: UACC-257 melanoma
[56] = system: UACC-62 melanoma
[57] = system: UO-31 renal
[58] = system: SF-539 CNS
[59] = system: MALME-3M melanoma

## CC1(C)OC(=O)N(c2ccccc2)C12C=Cc1cccc([N+](=O)[O-])c1O2 (stereo unspecified)
[1]
  TGI: > 100 µM
[2]
  TGI: > 100 µM
[3]
  TGI: > 100 µM
[4]
  TGI: > 100 µM
[5]
  TGI: > 100 µM
[6]
  TGI: > 100 µM
[7]
  TGI: > 100 µM
[8]
  TGI: > 100 µM
[9]
  TGI: > 100 µM
[10]
  TGI: > 100 µM
[11]
  TGI: > 100 µM
[12]
  TGI: > 100 µM
[13]
  TGI: > 100 µM
[14]
  TGI: 58.7 µM
[15]
  TGI: > 100 µM
[16]
  TGI: > 100 µM
[17]
  TGI: > 100 µM
[18]
  TGI: > 100 µM
[19]
  TGI: > 100 µM
[20]
  TGI: > 100 µM
[21]
  TGI: > 100 µM
[22]
  TGI: > 100 µM
[23]
  TGI: > 100 µM
[24]
  TGI: > 100 µM
[25]
  TGI: > 100 µM
[26]
  TGI: > 100 µM
[27]
  TGI: > 100 µM
[28]
  TGI: 74.1 µM
[29]
  TGI: > 100 µM
[30]
  TGI: > 100 µM
[31]
  TGI: > 100 µM
[32]
  TGI: > 100 µM
[33]
  TGI: > 100 µM
[34]
  TGI: > 100 µM
[35]
  TGI: > 100 µM
[36]
  TGI: > 100 µM
[37]
  TGI: > 100 µM
[38]
  TGI: > 100 µM
[39]
  TGI: > 100 µM
[40]
  TGI: > 100 µM
[41]
  TGI: > 100 µM
[42]
  TGI: > 100 µM
[43]
  TGI: > 100 µM
[44]
  TGI: > 100 µM
[45]
  TGI: > 100 µM
[46]
  TGI: 76.2 µM
[47]
  TGI: > 100 µM
[48]
  TGI: > 100 µM
[49]
  TGI: > 100 µM
[50]
  TGI: 50.2 µM
[51]
  TGI: > 100 µM
[52]
  TGI: 94.9 µM
[53]
  TGI: > 100 µM
[54]
  TGI: > 100 µM
[55]
  TGI: > 100 µM
[56]
  TGI: > 100 µM
[57]
  TGI: > 100 µM

## COc1ccc(/C=C2\CCS(=O)(=O)c3ccccc3C2=O)cc1
[1]
  TGI: 34.6 µM
[2]
  TGI: 37.1 µM
[3]
  TGI: > 100 µM
[4]
  TGI: 47.2 µM
[5]
  TGI: 79.8 µM
[6]
  TGI: 67.5 µM
[7]
  TGI: 68.5 µM
[8]
  TGI: 30.5 µM
[9]
  TGI: 61 µM
[10]
  TGI: 46.4 µM
[11]
  TGI: 38.6 µM
[12]
  TGI: 31.2 µM
[13]
  TGI: 43.1 µM
[14]
  TGI: 66.4 µM
[15]
  TGI: > 100 µM
[16]
  TGI: 71.7 µM
[17]
  TGI: 82.8 µM
[18]
  TGI: 35.9 µM
[19]
  TGI: 43.1 µM
[20]
  TGI: > 100 µM
[21]
  TGI: 31 µM
[22]
  TGI: 40.4 µM
[23]
  TGI: > 100 µM
[24]
  TGI: > 100 µM
[25]
  TGI: 75.3 µM
[26]
  TGI: 89.8 µM
[27]
  TGI: 77.3 µM
[28]
  TGI: 65.2 µM
[29]
  TGI: 62.8 µM
[30]
  TGI: 47.6 µM
[31]
  TGI: 57 µM
[33]
  TGI: 50 µM
[34]
  TGI: 93.8 µM
[35]
  TGI: 58.8 µM
[36]
  TGI: > 100 µM
[37]
  TGI: 53.4 µM
[38]
  TGI: 75.3 µM
[39]
  TGI: 61 µM
[40]
  TGI: 46.4 µM
[41]
  TGI: 98.2 µM
[42]
  TGI: 98.9 µM
[58]
  TGI: 67.4 µM
[43]
  TGI: 96.4 µM
[44]
  TGI: 72 µM
[46]
  TGI: > 100 µM
[47]
  TGI: 77.3 µM
[48]
  TGI: 70.6 µM
[49]
  TGI: > 100 µM
[50]
  TGI: 40.5 µM
[51]
  TGI: 49.1 µM
[52]
  TGI: 74.3 µM
[53]
  TGI: 61.6 µM
[54]
  TGI: 37.7 µM
[55]
  TGI: 56.5 µM
[56]
  TGI: 42.4 µM
[57]
  TGI: 38 µM

## NC(=O)NCCCC(NC(=O)OCCCCCCn1ccc(=O)[nH]c1=O)C(=O)O (stereo unspecified)
[1]
  TGI: > 100 µM
[3]
  TGI: > 100 µM
[4]
  TGI: > 100 µM
[5]
  TGI: > 100 µM
[6]
  TGI: > 100 µM
[7]
  TGI: > 100 µM
[8]
  TGI: > 100 µM
[9]
  TGI: > 100 µM
[10]
  TGI: > 100 µM
[11]
  TGI: > 100 µM
[12]
  TGI: > 100 µM
[13]
  TGI: > 100 µM
[14]
  TGI: > 100 µM
[15]
  TGI: > 100 µM
[16]
  TGI: > 100 µM
[17]
  TGI: > 100 µM
[18]
  TGI: > 100 µM
[19]
  TGI: > 100 µM
[20]
  TGI: > 100 µM
[21]
  TGI: > 100 µM
[22]
  TGI: > 100 µM
[23]
  TGI: > 100 µM
[24]
  TGI: > 100 µM
[25]
  TGI: > 100 µM
[26]
  TGI: > 100 µM
[27]
  TGI: > 100 µM
[28]
  TGI: > 100 µM
[29]
  TGI: > 100 µM
[30]
  TGI: > 100 µM
[31]
  TGI: > 100 µM
[33]
  TGI: > 100 µM
[34]
  TGI: > 100 µM
[35]
  TGI: > 100 µM
[36]
  TGI: > 100 µM
[37]
  TGI: > 100 µM
[38]
  TGI: > 100 µM
[39]
  TGI: > 100 µM
[40]
  TGI: > 100 µM
[41]
  TGI: > 100 µM
[42]
  TGI: > 100 µM
[58]
  TGI: > 100 µM
[43]
  TGI: > 100 µM
[44]
  TGI: > 100 µM
[46]
  TGI: > 100 µM
[47]
  TGI: > 100 µM
[48]
  TGI: > 100 µM
[49]
  TGI: > 100 µM
[50]
  TGI: > 100 µM
[51]
  TGI: > 100 µM
[52]
  TGI: > 100 µM
[53]
  TGI: > 100 µM
[54]
  TGI: > 100 µM
[55]
  TGI: > 100 µM
[56]
  TGI: > 100 µM
[57]
  TGI: > 100 µM

## C=CCN(C(=O)OC(C)(C)C)[C@H](C)C(=O)N[C@@H](C)C(=O)OC
[1]
  TGI: > 100 µM
[2]
  TGI: > 100 µM
[3]
  TGI: > 100 µM
[4]
  TGI: > 100 µM
[5]
  TGI: > 100 µM
[6]
  TGI: > 100 µM
[7]
  TGI: > 100 µM
[8]
  TGI: > 100 µM
[9]
  TGI: > 100 µM
[10]
  TGI: > 100 µM
[12]
  TGI: > 100 µM
[13]
  TGI: > 100 µM
[14]
  TGI: > 100 µM
[15]
  TGI: > 100 µM
[16]
  TGI: > 100 µM
[17]
  TGI: > 100 µM
[18]
  TGI: > 100 µM
[19]
  TGI: > 100 µM
[20]
  TGI: > 100 µM
[21]
  TGI: > 100 µM
[22]
  TGI: > 100 µM
[23]
  TGI: > 100 µM
[59]
  TGI: > 100 µM
[24]
  TGI: > 100 µM
[25]
  TGI: > 100 µM
[26]
  TGI: > 100 µM
[27]
  TGI: > 100 µM
[28]
  TGI: > 100 µM
[29]
  TGI: > 100 µM
[30]
  TGI: > 100 µM
[32]
  TGI: > 100 µM
[33]
  TGI: > 100 µM
[34]
  TGI: > 100 µM
[35]
  TGI: > 100 µM
[36]
  TGI: > 100 µM
[37]
  TGI: > 100 µM
[38]
  TGI: > 100 µM
[39]
  TGI: > 100 µM
[41]
  TGI: > 100 µM
[42]
  TGI: > 100 µM
[58]
  TGI: > 100 µM
[43]
  TGI: > 100 µM
[44]
  TGI: > 100 µM
[45]
  TGI: > 100 µM
[46]
  TGI: > 100 µM
[47]
  TGI: > 100 µM
[48]
  TGI: > 100 µM
[50]
  TGI: > 100 µM
[51]
  TGI: > 100 µM
[52]
  TGI: > 100 µM
[54]
  TGI: > 100 µM
[56]
  TGI: > 100 µM
[57]
  TGI: > 100 µM
